Columns and labels:
[1] = molecular target: hEP4 (Homo sapiens, UniProt P35408); test: Radioligand binding, EP4 receptor; parameters: expressed in transfected cells; host or cells: HEK-293; settings: [3H]PGE2, HEK-293 cells expressing EP4
Procedure: (§1) HEK-293 cells stably expressing the human or feline FP receptor, or EP1, EP2, or EP4 receptors were washed with TME buffer, scraped from the bottom of the flasks, and homogenized for 30 sec using a Brinkman PT 10/35 polytron. TME buffer was added to achieve a final 40 ml volume in the centrifuge tubes (the composition of TME is 100 mM TRIS base, 20 mM MgCl2, […]; 10N HCl is added to achieve a pH of 7.4).
(§2) The cell homogenate was centrifuged at 19000 r.p.m. for 20 min at 4° C. using a Beckman Ti-60 rotor. The resultant pellet was resuspended in TME buffer to give a final 1 mg/ml protein concentration, as determined by Biorad assay. Radioligand binding competition assays vs. [3H-] 17-phenyl PGF2, (5 nM) were performed in a 100 μl volume for 60 min. Binding reactions were started by adding plasma membrane fraction. The reaction was terminated by the addition of 4 ml ice-cold TRIS-HCl buffer and rapid filtration through glass fiber GF/B filters using a Brandel cell harvester. The filters were washed 3 times with ice-cold buffer and oven dried for one hour.
(§3) [^3H-] PGE2 (specific activity 180 Ci mmol) was used as the radioligand for EP receptors. [^3H] 17-phenyl PGF2, was employed for FP receptor binding studies. Binding studies employing EP1, EP2, EP4 and FP receptors were performed in duplicate in at least three separate experiments. A […] assay volume was used. Incubations were for 60 min at 25° C. and were terminated by the addition of 4 ml of ice-cold 50 mM TRIS-HCl, followed by rapid filtration through Whatman GF/B filters and three additional 4 ml washes in a cell harvester (Brandel). Competition studies were performed using a final concentration of 5 nM [^3H]-PGE2, or 5 nM [^3H] 17-phenyl PGF2, and non-specific binding determined with 10^−5M of unlabeled PGE2, or 17-phenyl PGF2α, according to receptor subtype studied.

[2] = molecular target: T1, hEP2 (Homo sapiens, UniProt P43116); test: Competition binding, [3H]PGE2, human EP2 receptors; parameters: expressed in transfected cells; host or cells: HEK 293; settings: [3H]PGE2, HEK 293 cells stably expressing human EP2; read-out: hEP2 Ki
T1 sequence (P43116 whole entry): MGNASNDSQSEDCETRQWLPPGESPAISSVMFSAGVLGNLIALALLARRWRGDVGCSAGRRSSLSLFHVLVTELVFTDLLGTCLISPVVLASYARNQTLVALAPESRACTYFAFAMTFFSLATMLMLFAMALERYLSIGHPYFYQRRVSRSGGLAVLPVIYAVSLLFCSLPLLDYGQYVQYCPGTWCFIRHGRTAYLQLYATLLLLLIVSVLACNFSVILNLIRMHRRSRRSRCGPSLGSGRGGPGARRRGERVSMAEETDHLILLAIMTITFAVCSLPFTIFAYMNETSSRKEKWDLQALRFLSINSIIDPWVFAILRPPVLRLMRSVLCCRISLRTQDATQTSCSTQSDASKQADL
Procedure: Competition binding experiments were performed in a medium containing Hank's balanced salt solution, Hepes 20 mM, pH 7.3, membranes (˜60 μg protein) or 2×10^5 cells from HEK 293 cells stably expressing human EP2 receptors, [^3H]PGE2 (10 nM) and various concentrations of test compounds in a total volume of 300 μl. Reaction mixtures were incubated at 23° C. for 60 min, and were filtered over Whatman GF/B filters under vacuum. Filters were washed three times with 5 ml ice-cold buffer containing 50 mM Tris/HCl (pH 7.3). Non-specific binding was estimated in the presence of excess unlabeled PGE2 (10 μM). Binding data fitted to the binding model for a single class of binding sites, using nonlinear regression analysis. IC50 values thus obtained were converted to Ki using the equation of Ki=(IC50/(1+[L]/KD) where [L] represents PGE2 concentration (10 nM) and KD the dissociation constant for [^3H]PGE2 at human EP2 receptors (40 nM).
as §1, §2, §3

[3] = molecular target: T1, hEP2; test: FLIPR calcium signal, hEP2; type: cell-based; parameters: expressed in transfected cells; host or cells: HEK-293(EBNA); settings: HEK-293(EBNA) cells expressing hEP2/Gqs5
Procedure: Methods for FLIPR™ Studies
HEK-293(EBNA) cells, stably expressing one type or subtype of recombinant human prostaglandin receptors (prostaglandin receptors expressed: hDP/Gqs5; hEP1; hEP2/Gqs5; hEP3A/Gqi5; hEP4/Gqs5; hFP; hIP; hTP), were cultured in 100 mm culture dishes in high-glucose DMEM medium containing 10% fetal bovine serum, 2 mM 1-glutamine, 250 μg/ml geneticin (G418) and 200 μg/ml hygromycin B as selection markers, and 100 units/ml penicillin G, 100 μg/ml streptomycin and 0.25 μg/ml amphotericin B.
Cells were seeded at a density of 5×10^4 cells per well in Biocoat® Poly-D-lysine-coated black-wall, clear-bottom 96-well plates (Becton-Dickinson) and allowed to attach overnight in an incubator at 37° C. Cells were then washed two times with HBSS-HEPES buffer (Hanks Balanced Salt Solution without bicarbonate and phenol red, 20 mM HEPES, pH 7.4) using a Denley Cellwash plate washer (Labsystems). After 45 minutes of dye-loading in the dark, using the calcium-sensitive dye Fluo-4 AM at a final concentration of 2 μM, plates were washed four times with HBSS-HEPES buffer to remove excess dye leaving 100 μl in each well. Plates were re-equilibrated to 37° C. for a few minutes.
Cells were excited with an Argon laser at 488 nm, and emission was measured through a 510-570 nm bandwidth emission filter (FLIPR™, Molecular Devices, Sunnyvale, Calif.). Drug solution was added in a 50 μl volume to each well to give the desired final concentration. The peak increase in fluorescence intensity was recorded for each well. On each plate, four wells each served as negative (HBSS-HEPES buffer) and positive controls (standard agonists: BW245C (hDP); PGE2 (hEP1; hEP2/Gqs5; hEP3A/Gqi5; hEP4/Gqs5); PGF2α (hFP); carbacyclin (hIP); U-46619 (hTP), depending on receptor). The peak fluorescence change in each drug-containing well was then expressed relative to the controls.
Compounds were tested in a high-throughput (HTS) or concentration-response (CoRe) format. In the HTS format, forty-four compounds per plate were examined in duplicates at a concentration of 10^−5 M. To generate concentration-response curves, four compounds per plate were tested in duplicates in a concentration range between 10^−5 and 10^−11 M. The duplicate values were averaged. In either, HTS or CoRe format each compound was tested on at least 3 separate plates using cells from different passages to give an n≧3.

[4] = molecular target: T1, hEP2; test: cAMP assay, hEP2; type: cell-based

Sequence of hEP4 (P35408 whole entry): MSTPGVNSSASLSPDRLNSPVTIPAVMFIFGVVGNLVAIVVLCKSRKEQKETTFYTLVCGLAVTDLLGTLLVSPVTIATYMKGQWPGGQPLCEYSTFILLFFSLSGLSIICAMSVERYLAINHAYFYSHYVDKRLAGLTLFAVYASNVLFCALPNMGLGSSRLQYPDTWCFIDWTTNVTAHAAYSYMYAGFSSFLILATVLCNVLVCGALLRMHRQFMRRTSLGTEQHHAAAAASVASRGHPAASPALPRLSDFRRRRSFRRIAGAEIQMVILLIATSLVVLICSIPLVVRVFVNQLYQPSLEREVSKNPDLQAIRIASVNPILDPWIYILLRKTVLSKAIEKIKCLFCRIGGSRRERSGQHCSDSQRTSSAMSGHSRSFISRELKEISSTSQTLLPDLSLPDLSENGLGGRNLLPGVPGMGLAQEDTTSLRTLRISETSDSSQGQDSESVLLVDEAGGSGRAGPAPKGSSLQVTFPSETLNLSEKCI

Compound	Ki [1]	Ki [2]	EC50 [3]	EC50 [4]
O=Cc1ccc(OC[C@@H]2[C@@H](C/C=C\CCCC(=O)O)[C@H](Cl)C[C@H]2O)cc1 [Example 42, (Z)-7-[(1R,2S,3R,5R)-5-Chloro-2-(4-formyl-phenoxymethyl)-3-hydroxy-cyclopentyl]-hept-5-enoic acid]	> 10000 nM	1500 nM	> 10000 nM	18 nM
CC(C)(c1ccccc1)c1ccc(OC[C@@H]2[C@@H](C/C=C\CCCC(=O)O)[C@H](Cl)C[C@H]2O)cc1 [Example 31, (Z)-7-{(1R,2S,3R,5R)-5-Chloro-3-hydroxy-2-[4-(1-methyl-1-phenyl-ethyl)-phenoxymethyl]-cyclopentyl}-hept-5-enoic acid]	1740 nM	> 10000 nM	> 10000 nM	
CC(O)c1ccc(OC[C@@H]2[C@@H](C/C=C\CCCC(=O)O)[C@H](Cl)C[C@H]2O)cc1 (stereo partly drawn) [Example 47, (Z)-7-{(1R,2S,3R,5R)-5-Chloro-3-hydroxy-2-[4-(1-hydroxy-ethyl)-phenoxymethyl]-cyclopentyl}-hept-5-enoic acid]	> 10000 nM	5290 nM	1940 nM	124 nM
CCCC(O)c1ccc(OC[C@@H]2[C@@H](C/C=C\CCCC(=O)O)[C@H](Cl)C[C@H]2O)cc1 (stereo partly drawn) [Example 44, (Z)-7-{(1R,2S,3R,5R)-5-Chloro-3-hydroxy-2-[4-(1-hydroxy-butyl)-phenoxymethyl]-cyclopentyl}-hept-5-enoic acid]	> 10000 nM	2730 nM	1100 nM	66 nM
CCCCCC(O)c1ccc(OC[C@@H]2[C@@H](C/C=C\CCCC(=O)O)[C@H](Cl)C[C@H]2O)cc1 (stereo partly drawn) [Example 46, (Z)-7-{(1R,2S,3R,5R)-5-Chloro-3-hydroxy-2-[4-(1-hydroxy-hexyl)-phenoxymethyl]-cyclopentyl}-hept-5-enoic acid]	2650 nM	2350 nM	531 nM	119 nM
CCCC(OC)c1ccc(OC[C@@H]2[C@@H](C/C=C\CCCC(=O)O)[C@H](Cl)C[C@H]2O)cc1 (stereo partly drawn) [Example 45, (Z)-7-{(1R,2S,3R,5R)-5-Chloro-3-hydroxy-2-[4-(1-methoxy-butyl)-phenoxymethyl]-cyclopentyl}-hept-5-enoic acid]	5280 nM	904 nM	661 nM	47 nM

Continued, values first:

Ki [1]	Ki [2]	EC50 [3]	EC50 [4]	Compound
1660 nM	195 nM	142 nM	23 nM	COCc1c(C)cc(OC[C@@H]2[C@@H](C/C=C\CCCC(=O)O)[C@H](Cl)C[C@H]2O)cc1C [Example 57, (Z)-7-[(1R,2S,3R,5R)-5-Chloro-3-hydroxy-2-(4-methoxymethyl-3,5-dimethyl-phenoxymethyl)-cyclopentyl]-hept-5-enoic acid]
1130 nM	826 nM	463 nM	68 nM	CCCCCC(O)c1cccc(OC[C@@H]2[C@@H](C/C=C\CCCC(=O)O)[C@H](Cl)C[C@H]2O)c1 (stereo partly drawn) [Example 50, (Z)-7-{(1R,2S,3R,5R)-5-Chloro-3-hydroxy-2-[3-(1-hydroxy-hexyl)-phenoxymethyl]-cyclopentyl}-hept-5-enoic acid]
1850 nM	1750 nM	1730 nM	496 nM	O=C(O)CCC/C=C\C[C@@H]1[C@@H](COc2cccc(C(O)Cc3ccccc3)c2)[C@H](O)C[C@H]1Cl (stereo partly drawn) [Example 53, (Z)-7-{(1R,2S,3R,5R)-5-Chloro-3-hydroxy-2-[3-(1-hydroxy-2-phenyl-ethyl)-phenoxymethyl]-cyclopentyl}-hept-5-enoic acid]
3000 nM	139 nM	108 nM	1.2 nM	O=C(O)CCC/C=C\C[C@@H]1[C@@H](COc2cccc3c2CCC3O)[C@H](O)C[C@H]1Cl (stereo partly drawn) [Example 59, (Z)-7-[(1R,2S,3R,5R)-5-Chloro-3-hydroxy-2-(1-hydroxy-indan-4-yloxymethyl)-cyclopentyl]-hept-5-enoic acid]
> 10000 nM	772 nM	196 nM	39 nM	CC(C)C(O)c1cccc(OC[C@@H]2[C@@H](C/C=C\CCCC(=O)O)[C@H](Cl)C[C@H]2O)c1 (stereo partly drawn) [Example 51, (Z)-7-{(1R,2S,3R,5R)-5-Chloro-3-hydroxy-2-[3-(1-hydroxy-2-methyl-propyl)-phenoxymethyl]-cyclopentyl}-hept-5-enoic acid]
> 10000 nM	207 nM	374 nM	14 nM	O=C(O)CCC/C=C\C[C@@H]1[C@@H](COc2cccc(CO)c2)[C@H](O)C[C@H]1Cl [Example 49, (Z)-7-[(1R,2S,3R,5R)-5-Chloro-3-hydroxy-2-(3-hydroxymethyl-phenoxymethyl)-cyclopentyl]-hept-5-enoic acid]
2200 nM	64 nM	27 nM	1.8 nM	Cc1cc(OC[C@@H]2[C@@H](C/C=C\CCCC(=O)O)[C@H](Cl)C[C@H]2O)cc(C)c1CO [Example 56, (Z)-7-[(1R,2S,3R,5R)-5-Chloro-3-hydroxy-2-(4-hydroxymethyl-3,5-dimethyl-phenoxymethyl)-cyclopentyl]-hept-5-enoic acid]
2830 nM	129 nM	51 nM	6.5 nM	O=C(O)CCC/C=C\C[C@@H]1[C@@H](COc2cccc3c2CCC3=O)[C@H](O)C[C@H]1Cl [Example 58, (Z)-7-[(1R,2S,3R,5R)-5-Chloro-3-hydroxy-2-(1-oxo-indan-4-yloxymethyl)-cyclopentyl]-hept-5-enoic acid]
> 10000 nM	701 nM	121 nM	40 nM	CC(O)c1cccc(OC[C@@H]2[C@@H](C/C=C\CCCC(=O)O)[C@H](Cl)C[C@H]2O)c1 (stereo partly drawn) [Example 54, (Z)-7-{(1R,2S,3R,5R)-5-Chloro-3-hydroxy-2-[3-(1-hydroxy-ethyl)-phenoxymethyl]-cyclopentyl}-hept-5-enoic acid]

— patent publication US7405240B2, “Substituted cyclopentanes or cyclopentanones as therapeutic agents” (Allergan, Inc., priority 2006, dated 2008)
